Activity calls are given as the source filed them.
How the values were obtained:
Conditions in all cases: Homo sapiens
HEK293 [1] = assay: Inhibition of proteasome beta2 in HEK cell lysates at 1 to 100 uM after 1 hr by MV151 competitive SDS-PAGE analysis
HEK293 [2] = assay: Inhibition of proteasome beta5 in HEK cell lysates at 1 to 100 uM after 1 hr by MV151 competitive SDS-PAGE analysis
HEK293 [3] = assay: Inhibition of proteasome beta1 in HEK cell lysates at 1 to 100 uM after 1 hr by MV151 competitive SDS-PAGE analysis
HEK293 [4] = assay: Inhibition of proteasome beta1 in HEK cell at 50 uM after 3 hrs by MV151 competitive SDS-PAGE analysis; format: cell-based
HEK293 [5] = assay: Inhibition of proteasome beta5 in HEK cell at 5 uM after 3 hrs by MV151 competitive SDS-PAGE analysis; format: cell-based
HEK293 [6] = assay: Inhibition of proteasome beta2 in HEK cell at 50 uM after 3 hrs by MV151 competitive SDS-PAGE analysis; format: cell-based

Measured: inhibition

CC(=O)N[C@@H](CC(C)C)C(=O)N[C@@H](CC(C)C)C(=O)N[C@@H](CC(C)C)C(=O)N[C@@H](CC(C)C)CS(=O)(=O)F
active: HEK293 [1] | HEK293 [2] | HEK293 [3]

CC(C)C[C@@H](CS(=O)(=O)F)NC(=O)[C@@H](N)[C@@H](C)OCc1ccccc1
inactive: HEK293 [1] | HEK293 [2] | HEK293 [3]

CC(C)C[C@@H](CS(=O)(=O)F)NC(=O)[C@H](CC(C)C)NC(=O)[C@@H](N)CC(C)C
active: HEK293 [1] | HEK293 [2] | HEK293 [3]

CC(C)C[C@@H](CS(=O)(=O)F)NC(=O)[C@H](Cc1ccccc1)NC(=O)c1cnccn1
inactive: HEK293 [1] | HEK293 [2] | HEK293 [3]

CC(C)C[C@@H](CS(=O)(=O)F)NC(=O)[C@H](CC(C)C)NC(=O)[C@H](CC(C)C)NC(=O)OC(C)(C)C
active: HEK293 [1] | HEK293 [2] | HEK293 [3]

CC[C@H](C)[C@H](N)C(=O)N[C@H](C(=O)N[C@@H](CC(C)C)CS(=O)(=O)F)[C@@H](C)OCc1ccccc1
active: HEK293 [1] | HEK293 [2] | HEK293 [3]

CC[C@H](C)[C@H](N)C(=O)N[C@H](C(=O)N[C@@H](CC(C)C)CS(=O)(=O)F)[C@@H](C)O
active: HEK293 [1] | HEK293 [2] | HEK293 [3]

CC(C)C[C@@H](CS(=O)(=O)F)NC(=O)[C@H](CC(C)C)NC(=O)[C@H](CC(C)C)NC(=O)OCc1ccccc1
active: HEK293 [1] | HEK293 [2] | HEK293 [3]

CC[C@H](C)[C@H](NC(=O)CN=[N+]=[N-])C(=O)N[C@H](C(=O)N[C@H](C(=O)N[C@@H](CC(C)C)CS(=O)(=O)F)[C@@H](C)OC(C)=O)[C@@H](C)CC
active: HEK293 [1] | HEK293 [2] | HEK293 [3]

CC[C@H](C)[C@H](NC(=O)CN=[N+]=[N-])C(=O)N[C@H](C(=O)N[C@H](C(=O)N[C@@H](CC(C)C)CS(=O)(=O)F)[C@@H](C)O)[C@@H](C)CC
active: HEK293 [1] | HEK293 [2] | HEK293 [3]

CC[C@H](C)[C@H](NC(=O)OC(C)(C)C)C(=O)N[C@H](C(=O)N[C@@H](CC(C)C)CS(=O)(=O)F)[C@@H](C)OCc1ccccc1
active: HEK293 [1] | HEK293 [2] | HEK293 [3]

CC[C@H](C)[C@H](N)C(=O)N[C@H](C(=O)N[C@H](C(=O)N[C@@H](CC(C)C)CS(=O)(=O)F)[C@@H](C)O)[C@@H](C)CC
active: HEK293 [1] | HEK293 [2] | HEK293 [3]

CC[C@H](C)[C@H](N)C(=O)N[C@H](C(=O)N[C@H](C(=O)N[C@@H](CC(C)C)CS(=O)(=O)F)[C@@H](C)OCc1ccccc1)[C@@H](C)CC
active: HEK293 [1] | HEK293 [2] | HEK293 [3]

CC[C@H](C)[C@H](NC(=O)OC(C)(C)C)C(=O)N[C@H](C(=O)N[C@H](C(=O)N[C@@H](CC(C)C)CS(=O)(=O)F)[C@@H](C)OCc1ccccc1)[C@@H](C)CC
active: HEK293 [1] | HEK293 [2] | HEK293 [3]

CC(C)C[C@@H](CS(=O)(=O)F)NC(=O)[C@H](CC(C)C)NC(=O)[C@H](CC(C)C)NC(=O)[C@H](Cc1ccccc1)N=[N+]=[N-]
active: HEK293 [1] | HEK293 [2] | HEK293 [3]

CC(C)C[C@@H](CS(=O)(=O)F)NC(=O)[C@H](CC(C)C)NC(=O)[C@H](CC(C)C)NC(=O)[C@H](CC(C)C)NC(=O)OCc1ccccc1
active: all assays above

CC(C)C[C@@H](CS(=O)(=O)F)NC(=O)[C@@H](N)Cc1ccccc1
inactive: HEK293 [1] | HEK293 [2] | HEK293 [3]

CC(C)C[C@@H](CS(=O)(=O)F)NC(=O)[C@H](CC(C)C)NC(=O)[C@H](CC(C)C)NC(=O)[C@@H](N)CC(C)C
active: HEK293 [1] | HEK293 [2] | HEK293 [3]

CC[C@H](C)[C@H](NC(C)=O)C(=O)N[C@H](C(=O)N[C@H](C(=O)N[C@@H](CC(C)C)CS(=O)(=O)F)[C@@H](C)OCc1ccccc1)[C@@H](C)CC
active: HEK293 [1] | HEK293 [2] | HEK293 [3]

CC[C@H](C)[C@H](NC(C)=O)C(=O)N[C@H](C(=O)N[C@H](C(=O)N[C@@H](CC(C)C)CS(=O)(=O)F)[C@@H](C)O)[C@@H](C)CC
active: HEK293 [1] | HEK293 [2] | HEK293 [3]

— ChEMBL document CHEMBL2177051
